Key:
Assay type in all cases: in vivo, BALB/c nude mice
cleaved caspase 3 = assay: Western blot of cleaved caspase 3 in M5 tumors; conditions: vs control group
Experimental: The mice were observed daily for clinical signs, weighed them every three days, and at one month after tumor-cell implantation euthanized them with an overdose of anesthetic combined with carbon dioxide. Immediately before sacrificing the mice, the blood was collected from them under anesthesia for hematological assessment. After euthanizing the mice, the tumors were excised immediately. The tumor specimens were divided into two groups. One group was treated with 10% formalin and embedded the specimens in paraffin. These specimens were investigated by hematoxylin and eosin staining; terminal deoxyribonucleotidyl transferase (TdT)-mediated biotin-16-dUTP nick-end labeling (TUNEL assay; APO-BrdU TUNEL Assay Kit, BD Pharmingen, San Diego, CA, USA); and IHC for IL-1β, TNF-α, TGF-β, and CD44, using primary antibodies against these factors (Merck, Billerica, MA, USA). Protein expression was assessed via IHC with the […] mouse/rabbit polymer detection system produced by BioTnA (Kaohsiung, Taiwan). A high-resolution digital microscope (Moticam 2300, Motic Instruments, Richmond, Canada) equipped with Motic Images Plus (version 2.0) was used to capture and analyze the images. […] Protein expression and phosphorylation were quantified with ImageJ (National Institutes of Health, Bethesda, […], USA).

IL-1β = assay: IHC analysis of IL-1β in M5 tumors; conditions: relative to the control group
Experimental: (§1) The mice were observed daily for clinical signs, weighed them every three days, and at one month after tumor-cell implantation euthanized them with an overdose of anesthetic combined with carbon dioxide. Immediately before sacrificing the mice, the blood was collected from them under anesthesia for hematological assessment. After euthanizing the mice, the tumors were excised immediately. The tumor specimens were divided into two groups. One group was treated with 10% formalin and embedded the specimens in paraffin. These specimens were investigated by hematoxylin and eosin staining; terminal deoxyribonucleotidyl transferase (TdT)-mediated biotin-16-dUTP nick-end labeling (TUNEL assay; APO-BrdU TUNEL Assay Kit, BD Pharmingen, San Diego, CA, USA); and IHC for IL-1β, TNF-α, TGF-β, and CD44, using primary antibodies against these factors (Merck, Billerica, MA, USA). Protein expression was assessed via IHC with the […] mouse/rabbit polymer detection system produced by BioTnA (Kaohsiung, Taiwan). A high-resolution digital microscope (Moticam 2300, Motic Instruments, Richmond, Canada) equipped with Motic Images Plus (version 2.0) was used to capture and analyze the images. The other groups of tumor specimens were first minced coarsely and homogenized, and then stored in a freezer at -80° C.

IL-6 = assay: ELISA of serum IL-6 in M5 tumor-bearing mice; conditions: relative to the control group
Experimental: The serum levels of IL-6 in the blood samples were measured using commercial mouse kits (ab213749 and ab100697; Abcam, Cambridge, MA, USA) according to the manufacturer's protocol. 50 μl of samples were added to each of the wells in 96-well antibody-coated plates and then incubated for 2 hours at room temperature. 50 μl of the detector antibody solution was loaded into each well and incubated the plates for a further 1 hour at room temperature. Next, […] of HRP-Streptavidin solution (ab210901, Abcam) was added to each well, and once again incubated the plates for 1 hour at room temperature. Finally, 100 μl of tetramethylbenzidine substrate was added to each well and incubated the plates for another 10 min in the dark, again at room temperature. The reaction was stopped by adding 100 μl of stop solution. The wavelength of absorbance was at 450 nm and results were expressed in pg/ml.

cyclooxygenase-2 (COX-2) = assay: Western blot of COX-2 in M5 tumors; conditions: vs control group
Experimental: The mice were observed daily for clinical signs, weighed them every three days, and at one month after tumor-cell implantation euthanized them with an overdose of anesthetic combined with carbon dioxide. Immediately before sacrificing the mice, the blood was collected from them under anesthesia for hematological assessment. After euthanizing the mice, the tumors were excised immediately. The tumor specimens were divided into two groups. One group was treated with 10% formalin and embedded the specimens in paraffin. These specimens were investigated by hematoxylin and eosin staining; terminal deoxyribonucleotidyl transferase (TdT)-mediated biotin-16-dUTP nick-end labeling (TUNEL assay; APO-BrdU TUNEL Assay Kit, BD Pharmingen, San Diego, CA, USA); and IHC for IL-1β, TNF-α, TGF-β, and CD44, using primary antibodies against these factors (Merck, Billerica, MA, USA). Protein expression was assessed via IHC with the TAlink mouse/rabbit polymer detection system produced by BioTnA (Kaohsiung, Taiwan). […]
Western blotting on the second group of tumor specimens was performed according to standard protocol (Wu et al 2020). […] Protein expression and phosphorylation were quantified with ImageJ (National Institutes of Health, Bethesda, […], USA).

TGF-β = assay: IHC analysis of TGF-β in M5 tumors; conditions: relative to the control group
Experimental: as §1

mTOR = assay: Western blot of mTOR in M5 tumors; conditions: FIG. 7A
S6K1 = assay: Western blot of S6K1 in M5 tumors; conditions: FIG. 7A
Ki67 = assay: IHC analysis of Ki67 in M5 tumors; conditions: FIGS. 9A and 9B
ZEB1 = assay: Quantitative PCR of ZEB1 mRNA in M5 tumors; conditions: FIG. 10

Row | SMILES | cleaved caspase 3 expression (cleaved caspase 3) | IL-1β activity reduction (IL-1β) [%] | serum IL-6 expression reduction (IL-6) [%] | Expression of cyclooxygenase-2 (COX-2) (cyclooxygenase-2 (COX-2)) | TGF-β expression reduction (TGF-β) | expression of mTOR (mTOR) | expression of S6K1 (S6K1) | Ki67 expression (Ki67) | ZEB1 mRNA expression (ZEB1)
1 | Cc1ccc(S(N)(=O)=O)cc1 [PTS, p-Toluenesulfonamide] | significantly higher | 26.5 | 57.5 | lower | ~23.3% | downregulated | downregulated | suppressed | downregulation
2 | N.N.[Cl][Pt][Cl] [Cisplatin, cisplatin, reference compound] | significantly higher | 29.7 | 62.8 | lower | about 26.6% | – | – | – | –

— patent publication US12409158B2, “Combination therapy for treating cancer” (GONGWIN BIOPHARM CO., LTD, priority 2022, dated 2025)
